Source: ChEMBL document CHEMBL1155515, “Discovery of novel selective norepinephrine reuptake inhibitors: 4-[3-aryl-2,2-dioxido-2,1,3-benzothiadiazol-1(3H)-yl]-1-(methylamino)butan-2-ols (WYE-103231)” (J Med Chem, 2010)

Legend:
Type in all cases: ADME, organism-based
[1] = Oral bioavailability in ovariectomised female rat at 5 mg/kg; details: in vivo
[2] = Tmax in intact female rat at 5 mg/kg, po; parameters: dose 5 mg/kg, route oral; details: in vivo
[3] = Tmax in male rat at 10 mg/kg, po; parameters: dose 10 mg/kg, route oral; details: in vivo
[4] = Cmax in intact female rat at 5 mg/kg, po; parameters: dose 5 mg/kg, route oral; details: in vivo
[5] = Tmax in ovariectomised female rat at 5 mg/kg, po; parameters: dose 5 mg/kg, route oral; details: in vivo
[6] = Oral bioavailability in intact female rat at 5 mg/kg; details: in vivo
[7] = AUC (0 to infinity) in ovariectomised female rat at 5 mg/kg, po; parameters: dose 5 mg/kg, route oral, time infinity; details: plasma
[8] = Oral bioavailability in male rat at 10 mg/kg; details: in vivo
[9] = Ratio of drug level from brain to plasma in ovariectomised female rat; details: read-out: BPR
[10] = AUC (0 to infinity) in ovariectomised female rat at 2 mg/kg, iv; parameters: time infinity, dose 2 mg/kg, route intravenous; details: plasma
[11] = AUC (0 to infinity) in intact female rat at 2 mg/kg, iv; parameters: time infinity, dose 2 mg/kg, route intravenous; details: plasma
[12] = Cmax in male rat at 10 mg/kg, po; parameters: dose 10 mg/kg, route oral; details: in vivo
[13] = AUC (0 to infinity) in male rat at 2 mg/kg, iv; parameters: time infinity, dose 2 mg/kg, route intravenous; details: plasma
[14] = Volume of distribution at steady state in male rat at 2 mg/kg, iv; parameters: dose 2 mg/kg, route intravenous; details: in vivo, read-out: Vdss
[15] = AUC (0 to infinity) in male rat at 10 mg/kg, po; parameters: time infinity, dose 10 mg/kg, route oral; details: plasma
[16] = Cmax in ovariectomised female rat at 5 mg/kg, po; parameters: dose 5 mg/kg, route oral; details: in vivo
[17] = Volume of distribution at steady state in intact female rat at 2 mg/kg, iv; parameters: dose 2 mg/kg, route intravenous; details: in vivo, read-out: Vdss
[18] = AUC (0 to infinity) in intact female rat at 5 mg/kg, po; parameters: time infinity, dose 5 mg/kg, route oral; details: plasma
[19] = Volume of distribution at steady state in ovariectomised female rat at 2 mg/kg, iv; parameters: dose 2 mg/kg, route intravenous; details: in vivo, read-out: Vdss

CNC[C@@H](O)CCN1c2ccccc2N(c2ccccc2F)S1(=O)=O
bioavailability [1]: 95.2%
Tmax [2]: 0.56 h
Tmax [3]: 1.38 h
Cmax [4]: 135 ng/mL
Tmax [5]: 1.63 h
bioavailability [6]: 41.3%
AUC(0-inf) [7]: 1200 ng·h/mL
bioavailability [8]: 100%
Kp [9]: 3.6
AUC(0-inf) [10]: 505 ng·h/mL
AUC(0-inf) [11]: 929 ng·h/mL
Cmax [12]: 154 ng/mL
AUC(0-inf) [13]: 199 ng·h/mL
Vd [14]: 36.3 L/kg
AUC(0-inf) [15]: 1040 ng·h/mL
Cmax [16]: 125 ng/mL
Vd [17]: 11.3 L/kg
AUC(0-inf) [18]: 959 ng·h/mL
Vd [19]: 25.3 L/kg
